In PubChem BioAssay AID258 (DTP/NCI, 2004) one finds T/C data, which are given here for 9 molecules.

The experiment deals with CD2F1 mice, L1210 leukemia sc, survival T/C. Nature of the experiment: NCI In Vivo Anticancer Drug Screen. Data for tumor model L1210 Leukemia (subcutaneous) in CD2F1 (CDF1) mice. The following applies: endpoint: median survival time, higher = longer survival. As to the method:
The antitumor activity of compounds was measured in mice bearing transplantable tumors. Survival or tumor size were measured and the results are expressed as the measurement made in the treated group (T) divided by the measurement made in the vehicle treated control group (C). The tumor model used in this assay is L1210 Leukemia (subcutaneous) in CD2F1 (CDF1) mice

The mark [1] stands for this setting: dose: 108.0 mg/kg/injection, schedule: Q01DX Z (sc), vehicle: methylcellulose (MC).
[2] abbreviates: dose: 180.0 mg/kg/injection, schedule: Q01DX Z (sc), vehicle: methylcellulose (MC).
The mark [3] stands for this setting: dose: 300.0 mg/kg/injection, schedule: Q01DX Z (sc), vehicle: methylcellulose (MC).

Structures are written as SMILES. Values joined by “and” are separate entries in the source; they are usually repeats but may differ in a detail not shown here. Equal entries are not always repeated. Inconclusive results and toxic doses are left out.

Take `Nc1nc([Se]c2nc(N)nc3c2ncn3C2OC(CO)C(O)C2O)c2ncn(C3OC(CO)C(O)C3O)c2n1` (centres undefined): the T/C reads like this: (dose: 12.5 mg/kg/injection, schedule: Q01DX005 (ip), vehicle: distilled water + Tween-80) 106 % of control; (dose: 25.0 mg/kg/injection, schedule: Q01DX005 (ip), vehicle: distilled water + Tween-80) 115 % of control; (dose: 36.0 mg/kg/injection, schedule: Q01DX009 (ip), vehicle: distilled water + Tween-80) 151 % of control; (dose: 50.0 mg/kg/injection, schedule: Q01DX005 (ip), vehicle: distilled water + Tween-80) 122 % of control; (dose: 60.0 mg/kg/injection, schedule: Q01DX009 (ip), vehicle: distilled water + Tween-80) 151 % of control and 168 % of control; (dose: 100.0 mg/kg/injection, schedule: Q01DX009 (ip), vehicle: distilled water + Tween-80) 156 % of control and 164 % of control. Further, the T/C (dose: 167.0 mg/kg/injection, schedule: Q01DX009 (ip), vehicle: distilled water + Tween-80) was 255 % of control and 297 % of control.
On to `CSc1nc2[nH]cnc(=S)c2[nH]1`, for which the T/C is 90 % of control (dose: 23.0 mg/kg/injection, schedule: Q01DX Z (sc), vehicle: methylcellulose (MC)); 100 % of control (dose: 39.0 mg/kg/injection, schedule: Q01DX Z (sc), vehicle: methylcellulose (MC)); 100 % of control (dose: 65.0 mg/kg/injection, schedule: Q01DX Z (sc), vehicle: methylcellulose (MC)); 100 % of control under setting [1]; 100 % of control under setting [2]; 100 % of control under setting [3].
Take `S=c1nc[nH]c2c1ncn2C1CCCC1`: the T/C by setting is: under setting [1], 100 % of control; under setting [2], 100 % of control; under setting [3], 100 % of control; (dose: 500.0 mg/kg/injection, schedule: Q01DX Z (sc), vehicle: methylcellulose (MC)) 100 % of control; (dose: 833.0 mg/kg/injection, schedule: Q01DX Z (sc), vehicle: methylcellulose (MC)) 100 % of control; (dose: 1388.0 mg/kg/injection, schedule: Q01DX Z (sc), vehicle: methylcellulose (MC)) 100 % of control.
In the case of `Cc1ccc(C(=O)Nc2ccc(S(=O)(=O)O)c3cc(S(=O)(=O)O)cc(S(=O)(=O)O)c23)cc1NC(=O)c1cccc(NC(=O)Nc2cccc(C(=O)Nc3cc(C(=O)Nc4ccc(S(=O)(=O)O)c5cc(S(=O)(=O)O)cc(S(=O)(=O)O)c45)ccc3C)c2)c1`, the T/C is, setting by setting: (dose: 10.0 mg/kg/injection, schedule: Q07DX003 (iv), vehicle: water) 97 % of control; (dose: 20.0 mg/kg/injection, schedule: Q07DX003 (iv), vehicle: water) 96 % of control; (dose: 40.0 mg/kg/injection, schedule: Q07DX003 (iv), vehicle: water) 100 % of control.
`Nc1n[nH]c(N)n1`: the T/C reads like this: (dose: 259.0 mg/kg/injection, schedule: Q01DX Z (sc), vehicle: water) 100 % of control; (dose: 432.0 mg/kg/injection, schedule: Q01DX Z (sc), vehicle: water) 113 % of control; (dose: 720.0 mg/kg/injection, schedule: Q01DX Z (sc), vehicle: water) 118 % of control; (dose: 1200.0 mg/kg/injection, schedule: Q01DX Z (sc), vehicle: water) 122 % of control.
For `O=C1c2c(O)ccc(O)c2C(=O)c2c(NCCNCCO)ccc(NCCNCCO)c21`, the T/C is 105 % of control and 114 % of control and 116 % of control (dose: 0.5 mg/kg/injection, schedule: Q01DX009 (ip), vehicle: saline with Tween-80); 114 % of control (dose: 1.0 mg/kg/injection, schedule: Q01DX009 (ip), vehicle: saline with Tween-80); 168 % of control (dose: 2.0 mg/kg/injection, schedule: Q01DX009 (ip), vehicle: saline with Tween-80).
On to `CNNCc1ccc(C(=O)NC(N)=O)cc1`, for which the T/C (dose: 50.0 mg/kg/injection, schedule: Q01DX Z (sc), vehicle: saline) is 94 % of control; the T/C (dose: 100.0 mg/kg/injection, schedule: Q01DX Z (sc), vehicle: saline) is 105 % of control; the T/C (dose: 200.0 mg/kg/injection, schedule: Q01DX Z (sc), vehicle: saline) is 105 % of control; the T/C (dose: 400.0 mg/kg/injection, schedule: Q01DX Z (sc), vehicle: saline) was 94 % of control.
Turning to `O=C[C@@H](CO)O[C@H](C=O)c1c[nH]c(=O)[nH]c1=O`, the T/C (dose: 54.0 mg/kg/injection, schedule: Q04DX003 (ip), vehicle: saline) is 106 % of control and the T/C (dose: 90.0 mg/kg/injection, schedule: Q04DX003 (ip), vehicle: saline) was 123 % of control.
As to `CC[C@](O)(C(=O)O)c1cc2n(c(=O)c1CO)Cc1cc3ccccc3nc1-2`, the T/C is 121 % of control (dose: 1.33 mg/kg/injection, schedule: Q01DX009 (ip), vehicle: saline); 122 % of control (dose: 1.33 mg/kg/injection, schedule: Q01DX009 (sc), vehicle: saline); 154 % of control (dose: 2.0 mg/kg/injection, schedule: Q01DX009 (ip), vehicle: saline); 113 % of control (dose: 4.0 mg/kg/injection, schedule: Q01DX009 (ip), vehicle: saline); 101 % of control (dose: 5.0 mg/kg/injection, schedule: Q01DX009 (sc), vehicle: saline); 86 % of control (dose: 8.0 mg/kg/injection, schedule: Q01DX009 (ip), vehicle: saline). The T/C is, setting by setting: (dose: 8.0 mg/kg/injection, schedule: Q01DX009 (sc), vehicle: saline) 86 % of control; (dose: 12.0 mg/kg/injection, schedule: Q01DX009 (sc), vehicle: saline) 115 % of control; (dose: 16.0 mg/kg/injection, schedule: Q01DX009 (sc), vehicle: saline) 113 % of control.
